Measured values taken from US7960415B2, “Caspase inhibitors and uses thereof” (Vertex Pharmaceutical Incoporated, priority 2003, dated 2011).

Tests used:
rat cortical neurons = test: Hypoxia-induced apoptosis of rat cortical neurons; assay type: cell-based, Wistar rat; settings: Cortical neurone, 95% N2/5% CO2, Cell Death Detection ELISA (DNA fragmentation)
Protocol: Cortical neurons are dissociated from Wistar rat embryos (E17) by a modification of the procedure of Rogers et al. 1997, Brain Res. Bulletin, 44:131. Briefly, cerebral cortices are isolated aseptically from 15-20 Wistar rat embryos. A cell suspension is prepared by mincing the cerebral cortices and digesting them with papain. Cells are washed with ovomucoid enzyme inhibitor and DNaseI and plated onto Poly-D lysine coated plates in high glucose DMEM containing 10% heat-inactivated fetal calf serum, L-glutamine, penicillin and streptomycin. The yield of neurons is […] per embryo and they are 80-90% viable as assessed by Trypan blue exclusion.
The neurons are cultured in complete medium at 37° C. in a normal atmosphere for 48 hours prior to the hypoxia experiments. For hypoxia, the normal cell medium is replaced by oxygen-depleted serum-free medium. Cells are incubated in an atmosphere of 95% N2/5% CO2 for various lengths of time. Compounds are dissolved in DMSO at 100 mM then diluted in medium and added to the culture from time=0. The level of apoptosis is measured using a Cell Death Detection ELISA kit (Roche) which detects DNA fragmentation. Plates are read at 405 nm. Controls included cells cultured in aerobic conditions in serum-containing medium (+serum) and cells cultured in aerobic conditions in serum-deprived medium (−serum).

[1] = tested on: IL-1β secretion from human whole blood; test: Inhibition of IL-1β secretion from whole blood; assay type: cell-based; settings: human whole blood diluted 1:2, LPS 5 ng/ml, 18 hours, ELISA
Protocol: Human blood is freshly drawn from healthy donors and diluted 1:2 in PBS. To 500 μl of diluted blood […] of prediluted test compound in RPMI medium and […] LPS (5 ng/ml final concentration on the plate) are added (LPS, Serotype 0111:B4, Sigma L3012). After stimulation for 18 hours supernatants are collected and assayed for IL-1β levels using the appropriate ELISA kit (R&D systems).

Jurkat E6.1 cells = test: Anti-Fas induced apoptosis assay; assay type: cell-based; settings: Homo sapiens, anti-Fas antibody CH-11 10 ng/ml, 16-18 hrs, DNA fragmentation
Excerpt: Cellular apoptosis may be induced by the binding of Fas ligand (FasL) to its receptor, CD95 (Fas). CD95 is one of a family of related receptors, known as death receptors, which can trigger apoptosis in cells via activation of the caspase enzyme cascade. The process is initiated by the binding of the adapter molecule FADD/MORT-1 to the cytoplasmic domain of the CD-95 receptor-ligand complex. Caspase-8 then binds FADD and becomes activated, initiating a cascade of events that involve the activation of downstream caspases and subsequent cellular apoptosis. Apoptosis can also be induced in cells expressing CD95 e.g., the Jurkat E6.1 T cell lymphoma cell line, using an antibody, rather than FasL, to crosslink the cell surface CD95. Anti-Fas-induced apoptosis is also triggered via the activation of caspase-8. This provides the basis of a cell based assay to screen compounds for inhibition of the caspase-8-mediated apoptotic pathway.
Jurkat E6.1 cells are cultured in complete medium consisting of RPMI-1640 (Sigma No)+10% foetal calf serum (Gibco BRL No. 10099-141)+2 mM L-glutamine (Sigma No. G-7513). The cells are harvested in log phase of growth. 100 ml of cells at 5-8×10^5 cells/ml are transferred to sterile 50 ml Falcon centrifuge tubes and centrifuged for 5 minutes at 100×g at room temperature. The supernatant is removed and the combined cell pellets resuspended in 25 ml of complete medium. The cells are counted and the density adjusted to 2×10^6 cells/ml with complete medium.
The test compound is dissolved in dimethyl sulfoxide (DMSO)(Sigma No. D-2650) to give a 100 mM stock solution. This is diluted to 400 μM in complete medium, then serially diluted in a 96-well plate prior to addition to the cell assay plate.
100 μl of the cell suspension ([…]) is added to each well of a sterile 96-well round-bottomed cluster plate (Costar No. 3790). 50 μl of compound solution at the appropriate dilution and 50 μl of anti-Fas antibody, clone CH-11 (Upstate, Cat No. 1 544 675) at a final concentration of 10 ng/ml, are added to the wells. Control wells are set up minus antibody and minus compound but with a serial dilution of DMSO as vehicle control. The plates are incubated for 16-18 hrs at 37° C. in 5% CO2 and 95% humidity.
Apoptosis of the cells is measured by the quantitation of DNA fragmentation using a ‘Cell Death Detection Assay’ from Roche diagnostics, No. 1544 675. After incubation for 16-18 hrs the assay plates are centrifuged at 100×g at room temperature for 5 minutes. 150 μl of the supernatant are removed and replaced by 150 μl of fresh complete medium. The cells are then harvested and 200 μl of the lysis buffer supplied in the assay kit are added to each well. The cells are triturated to ensure complete lysis and incubated for 30 minutes at 4° C. The plates are then centrifuged at 1900×g for 10 minutes and the supernatants diluted 1:20 in the incubation buffer provided. 100 μl of this solution is then assayed according to the manufacturer's instructions supplied with the kit. OD405 nm is measured 20 minutes after addition of the final substrate in a SPECTRAmax Plus plate reader (Molecular Devices). OD405 nm is plotted versus compound concentration and the IC50 values for the compounds are calculated using the curve-fitting program SOFTmax Pro (Molecular Devices) using the four parameter fit option.

Compound | IC50 (rat cortical neurons) | IC50 [1] | IC50 (Jurkat E6.1 cells)
CCCC(=O)Nc1cccn([C@@H](CC)C(=O)N[C@@H](CC(=O)O)C(=O)COc2c(F)c(F)cc(F)c2F)c1=O [Compound 3, (S,S)-3-[2-(3-Butyrylamino-2-oxo-2H-pyridin-1-yl)-butyrylamino]-4-oxo-5-(2,3,5,6-tetrafluoro-phenoxy)-pentanoic acid] | 1000 to 10000 nM | < 500 nM | –
CC[C@@H](C(=O)N[C@@H](CC(=O)O)C(=O)COc1c(F)c(F)cc(F)c1F)n1cccc(NC(=O)COC)c1=O [Compound 6, (S,S)-3-{2-[3-(2-Methoxy-acetylamino)-2-oxo-2H-pyridin-1-yl]-butyrylamino}-4-oxo-5-(2,3,5,6-tetrafluoro-phenoxy)-pentanoic acid] | 1000 to 10000 nM | 500 to 5000 nM | –
CC[C@@H](C(=O)N[C@@H](CC(=O)O)C(=O)COc1c(F)c(F)cc(F)c1F)n1cccc(NC(=O)c2ccoc2)c1=O [Compound 8, (S,S)-3-(2-{3-[(Furan-3-carbonyl)-amino]-2-oxo-2H-pyridin-1-yl}-butyrylamino)-4-oxo-5-(2,3,5,6-tetrafluoro-phenoxy)-pentanoic acid] | 1000 to 10000 nM | 500 to 5000 nM | –
CC[C@@H](C(=O)N[C@@H](CC(=O)O)C(=O)COc1c(F)c(F)cc(F)c1F)n1cccc(NC(=O)c2cccnc2)c1=O [Compound 9, (S,S)-4-Oxo-3-(2-{2-oxo-3-[(pyridine-3-carbonyl)-amino]-2H-pyridin-1-yl}-butyrylamino)-5-(2,3,5,6-tetrafluoro-phenoxy)-pentanoic acid] | 1000 to 10000 nM | 500 to 5000 nM | –
CC[C@@H](C(=O)N[C@@H](CC(=O)O)C(=O)COc1c(F)c(F)cc(F)c1F)n1cccc(NC(=O)c2ccsn2)c1=O [Compound 10, (S,S)-3-(2-{3-[(Isothiazole-3-carbonyl)-amino]-2-oxo-2H-pyridin-1-yl}-butyrylamino)-4-oxo-5-(2,3,5,6-tetrafluorophenoxy)-pentanoic acid] | < 1000 nM | < 500 nM | –
CC[C@@H](C(=O)N[C@@H](CC(=O)O)C(=O)COc1c(F)c(F)cc(F)c1F)n1cccc(NC(=O)Cc2ccccc2)c1=O [Compound 12, (S,S)-4-Oxo-3-[2-(2-oxo-3-phenylacetylamino-2H-pyridin-1-yl)-butyrylamino]-5-(2,3,5,6-tetrafluoro-phenoxy)-pentanoic acid] | < 1000 nM | 500 to 5000 nM | –
CCNC(=O)Nc1cccn([C@@H](CC)C(=O)N[C@@H](CC(=O)O)C(=O)COc2c(F)c(F)cc(F)c2F)c1=O [Compound 14, (S,S)-3-{2-[3-(3-Ethyl-ureido)-2-oxo-2H-pyridin-1-yl]-butyrylamino}-4-oxo-5-(2,3,5,6-tetrafluoro-phenoxy)-pentanoic acid] | 1000 to 10000 nM | < 500 nM | –
CC[C@@H](C(=O)N[C@@H](CC(=O)O)C(=O)COc1c(F)c(F)cc(F)c1F)n1cccc(NC(=O)N(CC)CC)c1=O [Compound 15, (S,S)-3-{2-[3-(3,3-Diethyl-ureido)-2-oxo-2H-pyridin-1-yl]-butyrylamino}-4-oxo-5-(2,3,5,6-tetrafluoro-phenoxy)-pentanoic acid] | < 1000 nM | 500 to 5000 nM | –
CC[C@@H](C(=O)N[C@@H](CC(=O)O)C(=O)COc1c(F)c(F)cc(F)c1F)n1cccc(NC(=O)N2CCCC2)c1=O [Compound 16, (S,S)-4-Oxo-3-(2-{2-oxo-3-[(pyrrolidine-1-carbonyl)-amino]-2H-pyridin-1-yl}-butyrylamino)-5-(2,3,5,6-tetrafluoro-phenoxy)-pentanoic acid] | 1000 to 10000 nM | 500 to 5000 nM | –
CC[C@@H](C(=O)N[C@@H](CC(=O)O)C(=O)COc1c(F)c(F)cc(F)c1F)n1cccc(NS(=O)(=O)C(C)C)c1=O [Compound 20, (S,S)-4-Oxo-3-{2-[2-oxo-3-(propane-2-sulfonylamino)-2H-pyridin-1-yl]-butyrylamino}-5-(2,3,5,6-tetrafluoro-phenoxy)-pentanoic acid] | < 1000 nM | 500 to 5000 nM | –
CC[C@@H](C(=O)N[C@@H](CC(=O)O)C(=O)COc1c(F)c(F)cc(F)c1F)n1cccc(NS(=O)(=O)c2ccccc2)c1=O [Compound 21, (S,S)-3-[2-(3-Benzenesulfonylamino-2-oxo-2H-pyridin-1-yl)-butyrylamino]-4-oxo-5-(2,3,5,6-tetrafluoro-phenoxy)-pentanoic acid] | 1000 to 10000 nM | 500 to 5000 nM | –
CC(C)[C@@H](C(=O)N[C@@H](CC(=O)O)C(=O)COc1c(F)c(F)cc(F)c1F)n1cccc(NC(=O)Cc2ccccc2)c1=O [Compound 23, (S,S)-3-[3-Methyl-2-(2-oxo-3-phenylacetylamino-2H-pyridin-1-yl)-butyrylamino]-4-oxo-5-(2,3,5,6-tetrafluoro-phenoxy)-pentanoic acid] | – | 500 to 5000 nM | –
CCS(=O)(=O)Nc1cccn([C@H](C(=O)N[C@@H](CC(=O)O)C(=O)COc2c(F)c(F)cc(F)c2F)C(C)C)c1=O [Compound 24, (S,S)-3-[2-(3-Ethanesulfonylamino-2-oxo-2H-pyridin-1-yl)-3-methyl-butyrylamino]-4-oxo-5-(2,3,5,6-tetrafluoro-phenoxy)-pentanoic acid] | 1000 to 10000 nM | – | –
CCC(=O)Nc1cccn([C@@H](C)C(=O)NC(CC(=O)O)C(=O)CF)c1=O (stereo partly drawn) [Compound 25, (S)-5-Fluoro-4-oxo-3-[2-(2-oxo-3-propionylamino-2H-pyridin-1-yl)-propionylamino]-pentanoic acid] | – | – | < 500 nM
C[C@@H](C(=O)NC(CC(=O)O)C(=O)CF)n1cccc(NC(=O)c2ccccc2)c1=O (stereo partly drawn) [Compound 26, (S)-3-[2-(3-Benzoylamino-2-oxo-2H-pyridin-1-yl)-propionylamino]-5-fluoro-4-oxo-pentanoic acid] | – | – | 500 to 2000 nM
C[C@@H](C(=O)NC(CC(=O)O)C(=O)CF)n1cccc(NC(=O)c2c(Cl)cccc2Cl)c1=O (stereo partly drawn) [Compound 27, (S)-3-{2-[3-(2,6-Dichloro-benzoylamino)-2-oxo-2H-pyridin-1-yl]-propionylamino}-5-fluoro-4-oxo-pentanoic acid] | – | – | < 500 nM
CC[C@@H](C(=O)N[C@@H](CC(=O)O)C(=O)COc1c(F)c(F)cc(F)c1F)n1cccc(Nc2nccs2)c1=O [Compound 38, (S,S)-4-Oxo-3-{2-[2-oxo-3-(thiazol-2-ylamino)-2H-pyridin-1-yl]-butyrylamino}-5-(2,3,5,6-tetrafluoro-phenoxy)-pentanoic acid] | < 1000 nM | 500 to 5000 nM | –
CCCNc1cccn([C@@H](CC)C(=O)N[C@@H](CC(=O)O)C(=O)COc2c(F)c(F)cc(F)c2F)c1=O [Compound 39, (S,S)-4-Oxo-3-[2-(2-oxo-3-propylamino-2H-pyridin-1-yl)-butyrylamino]-5-(2,3,5,6-tetrafluoro-phenoxy)-pentanoic acid] | < 1000 nM | 500 to 5000 nM | –
